Assay [1] deals with T1, IGF-1R (Homo sapiens, UniProt P08069).
T1 construct: expressed in transfected cells
In words: Example B-2: IGF-1R Assay (PathHunter cell lines, EC80 agonist challenge, chemiluminescent detection). Particulars: PathHunter cells, compound 60 minutes at 37° C., EC80 agonist 3 hours; read-out: IC50, Biological Activity against IGF-1R (Table B2). It counts as cell-based. The method in brief: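 PathHunter cells were pre-incubated with compound for 60 min at 37° C (1% vehicle), then challenged with EC80 agonist for 3 h at room temperature. Chemiluminescent detection after 1 h gave % inhibition relative to EC80 and vehicle controls, from which IC50 was derived.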

The target in assay [2] is T1, IGF-1R. Kind of assay: Example B-1: IGF-1R Assay (PC3 cells stimulated with IGF1, AlphaLISA on cell lysates). The assay is classed as cell-based. Particulars: compound two hours, IGF1 200 ng/mL for 30 min, read-out: IC50, Biological Activity against IGF-1R (Table B1). The method in brief:
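PC3 cells serum-starved 2 h, treated 2 h with 3-fold serially diluted compound, then stimulated 30 min with IGF1 (200 ng/mL final). Lysates analysed by AlphaLISA; % inhibition calculated relative to vehicle and EC80 controls, IC50 derived.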
A general note: Alpha assays give light when donor and acceptor beads are brought close together.

SMILES strings stand for the structures.

T1 sequence (P08069 31-1367): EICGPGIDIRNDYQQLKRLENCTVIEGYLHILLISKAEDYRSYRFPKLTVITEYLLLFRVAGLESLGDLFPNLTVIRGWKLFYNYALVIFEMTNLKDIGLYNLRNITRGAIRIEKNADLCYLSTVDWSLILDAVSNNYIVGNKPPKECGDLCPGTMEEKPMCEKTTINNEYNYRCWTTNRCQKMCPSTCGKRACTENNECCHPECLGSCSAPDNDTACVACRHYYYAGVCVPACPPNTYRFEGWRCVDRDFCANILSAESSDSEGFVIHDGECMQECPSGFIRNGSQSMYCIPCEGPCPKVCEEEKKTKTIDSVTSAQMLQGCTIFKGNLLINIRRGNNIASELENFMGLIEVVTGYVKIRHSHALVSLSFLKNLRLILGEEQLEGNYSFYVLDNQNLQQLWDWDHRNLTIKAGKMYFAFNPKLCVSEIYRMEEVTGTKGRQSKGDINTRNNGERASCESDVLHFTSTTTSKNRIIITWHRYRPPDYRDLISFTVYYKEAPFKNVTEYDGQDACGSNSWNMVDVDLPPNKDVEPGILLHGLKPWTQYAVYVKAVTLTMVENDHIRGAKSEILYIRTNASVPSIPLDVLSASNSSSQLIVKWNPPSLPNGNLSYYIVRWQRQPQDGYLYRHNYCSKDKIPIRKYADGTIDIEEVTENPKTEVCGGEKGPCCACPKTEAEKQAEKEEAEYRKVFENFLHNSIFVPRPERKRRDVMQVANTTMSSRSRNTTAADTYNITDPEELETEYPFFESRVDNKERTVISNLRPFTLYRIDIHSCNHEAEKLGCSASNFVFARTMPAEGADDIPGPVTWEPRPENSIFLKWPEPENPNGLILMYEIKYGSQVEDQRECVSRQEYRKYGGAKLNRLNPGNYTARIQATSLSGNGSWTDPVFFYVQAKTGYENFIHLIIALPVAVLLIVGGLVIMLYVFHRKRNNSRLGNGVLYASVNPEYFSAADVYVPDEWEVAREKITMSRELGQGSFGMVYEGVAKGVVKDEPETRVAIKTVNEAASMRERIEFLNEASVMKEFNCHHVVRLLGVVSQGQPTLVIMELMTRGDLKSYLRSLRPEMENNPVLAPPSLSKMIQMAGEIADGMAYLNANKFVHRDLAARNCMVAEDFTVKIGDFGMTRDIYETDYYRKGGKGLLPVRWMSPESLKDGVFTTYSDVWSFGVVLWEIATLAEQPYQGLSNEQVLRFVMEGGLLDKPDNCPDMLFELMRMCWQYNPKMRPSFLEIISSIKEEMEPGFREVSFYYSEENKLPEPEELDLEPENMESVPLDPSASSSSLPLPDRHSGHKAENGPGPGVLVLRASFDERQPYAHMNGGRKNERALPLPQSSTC

For `CC1(C)C(=O)N(c2ccc(C3(C(F)(F)F)CC3)cc2)C(=O)N1Cc1ccnc(N[C@@H]2CCOC2)c1` [Compound 118, (R)-5,5-dimethyl-1-((2-((tetrahydrofuran-3-yl)amino)pyridin-4-yl)methyl)-3-(4-(1-(trifluoromethyl)cyclopropyl)phenyl) imidazolidine-2,4-dione], the concentration for half-maximal inhibition (IC50) on IGF-1R [1] and on IGF-1R [2] was no more than 500 nM in each case.

Turning to `CC1(C)C(=O)N(c2ccc(C3(C(F)(F)F)CC3)cc2)C(=O)N1Cc1ccnc(N[C@H]2CCOC2)c1` [Compound 119, (S)-5,5-dimethyl-1-((2-((tetrahydrofuran-3-yl)amino)pyridin-4-yl)methyl)-3-(4-(1-(trifluoromethyl)cyclopropyl)phenyl) imidazolidine-2,4-dione], the 50% inhibitory concentration (IC50) at IGF-1R [1] and at IGF-1R [2] was no more than 500 nM each time.

Take `CC1(C)C(=O)N(c2ccc(C3(C(F)(F)F)CC3)cc2)C(=O)N1Cc1ccnc(NC2CC3(COC3)C2)c1` [Compound 120, 1-((2-((2-oxaspiro[3.3]heptan-6-yl)amino)pyridin-4-yl)methyl)-5,5-dimethyl-3-(4-(1-(trifluoromethyl)cyclopropyl)phenyl) imidazolidine-2,4-dione]: the IC50 on IGF-1R [1] and on IGF-1R [2] was no more than 500 nM in each case.

With `CC1(C)C(=O)N(c2ccc(C3(C(F)(F)F)CC3)cc2)C(=O)N1Cc1ccnc(N[C@H]2CCCOC2)c1` [Compound 121, (S)-5,5-dimethyl-1-((2-((tetrahydro-2H-pyran-3-yl)amino)pyridin-4-yl)methyl)-3-(4-(1-(trifluoromethyl)cyclopropyl)phenyl) imidazolidine-2,4-dione], the IC50 on IGF-1R [1] and on IGF-1R [2] was no more than 500 nM each time.

On to `Cc1c(CN2C(=O)N(c3ccc(C4(C(F)(F)F)CC4)cc3)C(=O)C2(C)C)ccnc1NC(C)C` [Compound 122, 1-((2-(isopropylamino)-3-methylpyridin-4-yl)methyl)-5,5-dimethyl-3-(4-(1-(trifluoromethyl)cyclopropyl)phenyl)imidazolidine-2,4-dione], for which the results for the IC50 on IGF-1R [1] and at IGF-1R [2] were no more than 500 nM and greater than 10000 nM, respectively.

Take `CC(C)Nc1cc(CN2C(=O)N(c3ccc(C4(C#N)CC(F)(F)C4)cc3)C(=O)C2(C)C)ccn1` [Compound 123, 3,3-difluoro-1-(4-(3-((2-(isopropylamino)pyridin-4-yl)methyl)-4,4-dimethyl-2,5-dioxoimidazolidin-1-yl)phenyl)cyclobutane-1-carbonitrile]: the IC50 at IGF-1R [1] and on IGF-1R [2] was 500 to 2000 nM each time.

Turning to `CC(C)Nc1cc(CN2C(=O)N(c3ccc(C4(C)CC4(F)F)cc3)C(=O)C2(C)C)ccn1` (stereo not shown) [Compound 124, 3-(4-(2,2-difluoro-1-methylcyclopropyl)phenyl)-1-((2-(isopropylamino)pyridin-4-yl)methyl)-5,5-dimethylimidazolidine-2,4-dione], the IC50 at IGF-1R [1] and at IGF-1R [2] was no more than 500 nM in each case.

For the compound `CC(C)Nc1cc(CN2C(=O)N(c3ccc(C(C)(C)C#N)cc3)C(=O)C2(C)C)ccn1` [Compound 125, 2-(4-(3-((2-(isopropylamino)pyridin-4-yl)methyl)-4,4-dimethyl-2,5-dioxoimidazolidin-1-yl)phenyl)-2-methylpropanenitrile], the IC50 at IGF-1R [1] and at IGF-1R [2] was no more than 500 nM throughout.

As for `CC(C)Nc1cc(CN2C(=O)N(c3ccc(C4(C#N)CCCCC4)cc3)C(=O)C2(C)C)ccn1` [Compound 126, 1-(4-(3-((2-(isopropylamino)pyridin-4-yl)methyl)-4,4-dimethyl-2,5-dioxoimidazolidin-1-yl)phenyl)cyclohexane-1-carbonitrile], the IC50 at IGF-1R [1] and on IGF-1R [2] was 500 to 2000 nM each time.

Take `CC1CC(Nc2cc(CN3C(=O)N(c4ccc(C5(C(F)(F)F)CC5)cc4)C(=O)C3(C)C)ccn2)CCO1` (stereo not shown) [Compound 127, 5,5-dimethyl-1-((2-((2-methyltetrahydro-2H-pyran-4-yl)amino)pyridin-4-yl)methyl)-3-(4-(1-(trifluoromethyl)cyclopropyl)phenyl) imidazolidine-2,4-dione]: the IC50 on IGF-1R [1] and on IGF-1R [2] was no more than 500 nM throughout.

Consider `CC1COCCC1Nc1cc(CN2C(=O)N(c3ccc(C4(C(F)(F)F)CC4)cc3)C(=O)C2(C)C)ccn1` (stereo not shown) [Compound 128, 5,5-dimethyl-1-((2-((3-methyltetrahydro-2H-pyran-4-yl)amino)pyridin-4-yl)methyl)-3-(4-(1-(trifluoromethyl)cyclopropyl)phenyl) imidazolidine-2,4-dione], for which the IC50 on IGF-1R [1] and on IGF-1R [2] was no more than 500 nM each time.

For `CC1(C)C(=O)N(c2ccc(C3(C#N)CCC3)cc2)C(=O)N1Cc1ccnc(NC2CCOCC2)c1` [Compound 129, 1-(4-(4,4-dimethyl-2,5-dioxo-3-((2-((tetrahydro-2H-pyran-4-yl)amino)pyridin-4-yl)methyl)imidazolidin-1-yl)phenyl)cyclobutane-1-carbonitrile], the IC50 at IGF-1R [1] and at IGF-1R [2] was no more than 500 nM in each case.

With `CC1(C)C(=O)N(c2ccc(C3(C(F)(F)F)CCC3)cc2)C(=O)N1Cc1ccnc(NC2CCOCC2)c1` [Compound 130, 5,5-dimethyl-1-((2-((tetrahydro-2H-pyran-4-yl)amino)pyridin-4-yl)methyl)-3-(4-(1-(trifluoromethyl)cyclobutyl)phenyl) imidazolidine-2,4-dione], the IC50 at IGF-1R [1] and on IGF-1R [2] was no more than 500 nM each time.

Regarding `CC(C)Nc1cc(CN2C(=O)N(c3ccc(C4(C#N)CCCC4)cc3)C(=O)C2(C)C)ccn1` [Compound 131, 1-(4-(3-((2-(isopropylamino)pyridin-4-yl)methyl)-4,4-dimethyl-2,5-dioxoimidazolidin-1-yl)phenyl)cyclopentane-1-carbonitrile], the IC50 on IGF-1R [1] and at IGF-1R [2] was no more than 500 nM each time.

For `CC1(C)COCCC1Nc1cc(CN2C(=O)N(c3ccc(C4(C(F)(F)F)CC4)cc3)C(=O)C2(C)C)ccn1` (stereo not shown) [Compound 132, 1-((2-((3,3-dimethyltetrahydro-2H-pyran-4-yl)amino)pyridin-4-yl)methyl)-5,5-dimethyl-3-(4-(1-(trifluoromethyl)cyclopropyl)phenyl) imidazolidine-2,4-dione], the IC50 on IGF-1R [1] fell in the range of 500 to 2000 nM; at IGF-1R [2], 2000 to 10000 nM.

As for `CC1(C)C(=O)N(c2ccc(C3(C(F)(F)F)CC3)cc2)C(=O)N1Cc1ccnc(NC2CCS(=O)(=O)CC2)c1` [Compound 133, 1-((2-((1,1-dioxidotetrahydro-2H-thiopyran-4-yl)amino)pyridin-4-yl)methyl)-5,5-dimethyl-3-(4-(1-(trifluoromethyl)cyclopropyl)phenyl) imidazolidine-2,4-dione], the IC50 on IGF-1R [1] and at IGF-1R [2] was 500 to 2000 nM throughout.

For the compound `CC(c1ccnc(NC2CCOCC2)c1)N1C(=O)N(c2ccc(C3(C(F)(F)F)CC3)cc2)C(=O)C1(C)C` (stereo not shown) [Compound 134, 5,5-dimethyl-1-(1-(2-((tetrahydro-2H-pyran-4-yl)amino)pyridin-4-yl)ethyl)-3-(4-(1-(trifluoromethyl)cyclopropyl)phenyl) imidazolidine-2,4-dione], the IC50 on IGF-1R [1] is 500 to 2000 nM; at IGF-1R [2], no more than 500 nM.

Turning to `CC(c1ccnc(N)c1)N1C(=O)N(c2ccc(C3(C(F)(F)F)CC3)cc2)C(=O)C1(C)C` (stereo not shown) [Compound 135, 1-(1-(2-aminopyridin-4-yl)ethyl)-5,5-dimethyl-3-(4-(1-(trifluoromethyl)cyclopropyl)phenyl) imidazolidine-2,4-dione], the IC50 on IGF-1R [1] and at IGF-1R [2] was no more than 500 nM each time.

As for `CC1(C)C(=O)N(c2ccc(C3(C(F)(F)F)CC3)cc2)C(=O)N1Cc1ccnc(NC2CCS(=O)(=O)C2)c1` (stereo not shown) [Compound 136, 1-((2-((1,1-dioxidotetrahydrothiophen-3-yl)amino)pyridin-4-yl)methyl)-5,5-dimethyl-3-(4-(1-(trifluoromethyl)cyclopropyl)phenyl) imidazolidine-2,4-dione], the IC50 at IGF-1R [1] and at IGF-1R [2] was 500 to 2000 nM in each case.

Take `CC1(C)C(=O)N(c2ccc(C3(C(F)(F)F)CC3)cc2)C(=O)N1Cc1ccnc(NCCS(C)(=O)=O)c1` [Compound 137, 5,5-dimethyl-1-((2-((2-(methylsulfonyl)ethyl)amino)pyridin-4-yl)methyl)-3-(4-(1-(trifluoromethyl)cyclopropyl)phenyl) imidazolidine-2,4-dione]: the IC50 on IGF-1R [1] and at IGF-1R [2] was no more than 500 nM in each case.

For the compound `CC1(Nc2cc(CN3C(=O)N(c4ccc(C5(C(F)(F)F)CC5)cc4)C(=O)C3(C)C)ccn2)CC1` [Compound 138, 5,5-dimethyl-1-((2-((1-methylcyclopropyl)amino)pyridin-4-yl)methyl)-3-(4-(1-(trifluoromethyl)cyclopropyl)phenyl) imidazolidine-2,4-dione], the IC50 at IGF-1R [1] and on IGF-1R [2] was no more than 500 nM each time.

`C[C@@H](CC#N)Nc1cc(CN2C(=O)N(c3ccc(C4(C(F)(F)F)CC4)cc3)C(=O)C2(C)C)ccn1` [Compound 139, (S)-3-((4-((5,5-dimethyl-2,4-dioxo-3-(4-(1-(trifluoromethyl)cyclopropyl)phenyl)imidazolidin-1-yl)methyl)pyridin-2-yl)amino)butanenitrile]: the IC50 on IGF-1R [1] and at IGF-1R [2] was no more than 500 nM each time.

Turning to `CC(C)Nc1cc(CN2C(=O)N(c3ccc4c(c3)N(C)C(=O)C43CC3)C(=O)C2(C)C)ccn1` [Compound 185, 1-((2-(isopropylamino)pyridin-4-yl)methyl)-5,5-dimethyl-3-(1′-methyl-2′-oxospiro[cyclopropane-1,3′-indolin]-6′-yl)imidazolidine-2,4-dione], the half-inhibitory concentration (IC50) at IGF-1R [1] and at IGF-1R [2] was 2000 to 10000 nM in each case.

For orientation: IC50 means the midpoint of a concentration-inhibition curve.

The values are drawn from US20250145585A1, “HETEROCYCLIC INHIBITORS OF IGF-1R FOR TREATMENT OF DISEASE” (HORIZON THERAPEUTICS IRELAND DAC, priority 2023, published 2025).
